Biological target: interaction of human SOS1 (SOS1) with human K-RasG12C (Homo sapiens (Human), UniProt Q07889)
Test: Biochemical assay: hK-RasG12C interaction assay with hSOS1 (HTRF)
Format: binding
Settings: GST-hK-RasG12C with His-hSOS1, 60 min incubation at 20° C., mean, read-out: K-RasG12C - SOS interaction assay IC50 (mean)
Procedure, shortened: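 Compounds, duplicates at 11 concentrations from 0.073 nM to 20 µM, were preincubated 2 min with 10 nM GST-hK-RasG12C, then 20 nM His-hSOS1 was added, all at 20 °C. After 60 min, 665/620 nm HTRF ratio normalized to DMSO and SOS1-free controls; IC50 by 4-parameter fit.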

Sequence of interaction of human SOS1 (SOS1) with human K-RasG12C (Q07889 564-1049 limits assumed): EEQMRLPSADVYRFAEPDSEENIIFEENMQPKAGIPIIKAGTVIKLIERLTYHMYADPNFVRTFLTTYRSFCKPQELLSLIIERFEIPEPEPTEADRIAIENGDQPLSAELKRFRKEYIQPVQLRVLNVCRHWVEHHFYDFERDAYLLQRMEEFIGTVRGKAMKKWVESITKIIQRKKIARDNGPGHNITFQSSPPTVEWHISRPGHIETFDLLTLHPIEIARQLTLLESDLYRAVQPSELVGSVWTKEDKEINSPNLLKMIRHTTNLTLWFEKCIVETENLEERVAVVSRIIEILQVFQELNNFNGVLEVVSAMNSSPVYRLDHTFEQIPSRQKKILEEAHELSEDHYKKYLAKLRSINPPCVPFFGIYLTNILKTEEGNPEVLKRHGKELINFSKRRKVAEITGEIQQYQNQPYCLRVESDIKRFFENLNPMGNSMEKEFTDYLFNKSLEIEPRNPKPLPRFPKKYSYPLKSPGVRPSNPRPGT

IC50 | SMILES
87.5 nM | CCNC(=O)C(F)(F)c1cccc([C@@H](C)Nc2nc(C)nc3cnc(P(C)(C)=O)cc23)c1F [Example 49, 2-{3-[(1R)-1-{[6-(dimethylphosphoryl)-2-methylpyrido[3,4-d]pyrimidin-4-yl]amino}ethyl]-2-fluorophenyl}-N-ethyl-2,2-difluoroacetamide]
86.3 nM | CNC(=O)C(F)(F)c1cccc([C@@H](C)Nc2nc(C)nc3cnc(P(C)(C)=O)cc23)c1F [Example 51, 2-{3-[(1R)-1-{[6-(dimethylphosphoryl)-2-methylpyrido[3,4-d]pyrimidin-4-yl]amino}ethyl]-2-fluorophenyl}-2,2-difluoro-N-methylacetamide]
26.2 nM | Cc1nc(N[C@H](C)c2cccc(C(F)(F)F)c2F)c2cc(P(C)(C)=O)ncc2n1 [Example 55, 6-(dimethylphosphoryl)-N-{(1R)-1-[2-fluoro-3-(trifluoromethyl)phenyl]ethyl}-2-methylpyrido[3,4-d]pyrimidin-4-amine]
74.1 nM | Cc1nc(N[C@H](C)c2cccc(Br)c2F)c2cc(P(C)(C)=O)ncc2n1 [Example 56, N-[(1R)-1-(3-bromo-2-fluorophenyl)ethyl]-6-(dimethylphosphoryl)-2-methylpyrido[3,4-d]pyrimidin-4-amine]
13.5 nM | [2H]C([2H])(O)C(F)(F)c1cccc([C@@H](C)Nc2nc(C)nc3cnc(P(C)(C)=O)cc23)c1F [Example 60, 2-{3-[(1R)-1-{[6-(dimethylphosphoryl)-2-methylpyrido[3,4-d]pyrimidin-4-yl]amino}ethyl]-2-fluorophenyl}-2,2-difluoro(^2H2)ethan-1-ol]
13.5 nM | Cc1nc(N[C@H](C)c2cccc(C(F)(F)CO)c2F)c2cc(P(C)(C)=O)ncc2n1 [Example 62, 2-{3-[(1R)-1-{[6-(dimethylphosphoryl)-2-methylpyrido[3,4-d]pyrimidin-4-yl]amino}ethyl]-2-fluorophenyl}-2,2-difluoroethan-1-ol]
17.8 nM | CCP(=O)(CC)c1cc2c(N[C@H](C)c3cccc(C(F)(F)CO)c3F)nc(C)nc2cn1 [Example 64, 2-{3-[(1R)-1-{[6-(diethylphosphoryl)-2-methylpyrido[3,4-d]pyrimidin-4-yl]amino}ethyl]-2-fluorophenyl}-2,2-difluoroethan-1-ol]
66.9 nM | CCP(C)(=O)c1cc2c(N[C@H](C)c3cccc(C(F)(F)C(C)(C)O)c3F)nc(C)nc2cn1 (stereo partly drawn) [Example 67, 1-{3-[(1R)-1-{{6-[ethyl(methyl)phosphoryl]-2-methylpyrido[3,4-d]pyrimidin-4-yl}amino)ethyl]-2-fluorophenyl}-1,1-difluoro-2-methylpropan-2-ol]
77.2 nM | CCP(=O)(CC)c1cc2c(N[C@H](C)c3cccc(C(F)F)c3F)nc(C)nc2cn1 [Example 92, 6-(diethylphosphoryl)-N-{(1R)-1-[3-(difluoromethyl)-2-fluorophenyl]ethyl}-2-methylpyrido[3,4-d]pyrimidin-4-amine]
46.5 nM | COCC(F)(F)c1cccc([C@@H](C)Nc2nc(C)nc3cnc(P(C)(C)=O)cc23)c1F [Example 94, N-{(1R)-1-[3-(1,1-difluoro-2-methoxyethyl)-2-fluorophenyl]ethyl}-6-(dimethylphosphoryl)-2-methylpyrido[3,4-d]pyrimidin-4-amine]
50.2 nM | CCP(=O)(CC)c1cc2c(N[C@H](C)c3cccc(C(F)(F)F)c3C)nc(C)nc2cn1 [Example 96, 6-(diethylphosphoryl)-2-methyl-N-{(1R)-1-[2-methyl-3-(trifluoromethyl)phenyl]ethyl}pyrido[3,4-d]pyrimidin-4-amine]

The remaining lines, values behind:

SMILES | IC50
Cc1nc(N[C@H](C)c2cccc(C(F)(F)C(=O)N(C)C)c2F)c2cc(P(C)(C)=O)ncc2n1 [Example 50, 2-{3-[(1R)-1-{[6-(dimethylphosphoryl)-2-methylpyrido[3,4-d]pyrimidin-4-yl]amino}ethyl]-2-fluorophenyl}-2,2-difluoro-N,N-dimethylacetamide] | 156 nM
Cc1nc(N[C@H](C)c2cccc(C(F)F)c2F)c2cc(P3(=O)CCN(C)CC3)ncc2n1 [Example 52, 4-[4-({(1R)-1-[3-(difluoromethyl)-2-fluorophenyl]ethyl}amino)-2-methylpyrido[3,4-d]pyrimidin-6-yl]-1-methyl-1,4lambda^5-azaphosphinan-4-one] | 35.5 nM
Cc1nc(N[C@H](C)c2cccc(C(F)(F)F)c2C)c2cc(P3(=O)CCN(C(C)C)CC3)ncc2n1 [Example 53, 4-[2-methyl-4-({(1R)-1-[2-methyl-3-(trifluoromethyl)phenyl]ethyl}amino)pyrido[3,4-d]pyrimidin-6-yl]-1-(propan-2-yl)-1,4lambda^5-azaphosphinan-4-one] | 65.4 nM
Cc1nc(N[C@H](C)c2cccc(C(F)(F)C(C)(C)O)c2F)c2cc(P3(=O)CCN(Cc4ccccc4)CC3)ncc2n1 [Example 54, 1-benzyl-4-[4-({(1R)-1-[3-(1,1-difluoro-2-hydroxy-2-methylpropyl)-2-fluorophenyl]ethyl}amino)-2-methylpyrido[3,4-d]pyrimidin-6-yl]-1,4lambda^5-azaphosphinan-4-one] | 22.5 nM
CC(=O)N1CCP(=O)(c2cc3c(N[C@H](C)c4cccc(C(F)F)c4)nc(C)nc3cn2)CC1 [Example 57, 1-acetyl-4-[4-{{(1R)-1-[3-(difluoromethyl)phenyl]ethyl}amino)-2-methylpyrido[3,4-d]pyrimidin-6-yl]-1,4lambda^5-azaphosphinan-4-one] | 19.3 nM
CC(=O)N1CCP(=O)(c2cc3c(N[C@H](C)c4cc(C)cc(C(F)(F)F)c4C)nc(C)nc3cn2)CC1 [Example 58, 1-acetyl-4-[4-{{(1R)-1-[2,5-dimethyl-3-(trifluoromethyl)phenyl]ethyl}amino)-2-methylpyrido[3,4-d]pyrimidin-6-yl]-1,4lambda^5-azaphosphinan-4-one] | 6.33 nM
Cc1nc(N[C@H](C)c2cccc(C(F)(F)CO)c2F)c2cc(P3(=O)CC=CC3)ncc2n1 [Example 59, 1-[4-{{(1R)-1-[3-(1,1-difluoro-2-hydroxyethyl)-2-fluorophenyl]ethyl}amino)-2-methylpyrido[3,4-d]pyrimidin-6-yl]-2,5-dihydro-1H-1lambda^5-phosphol-1-one] | 7.06 nM
[2H]C([2H])(O)C(F)(F)c1cccc([C@@H](C)Nc2nc(C)nc3cnc(P4(=O)CCCC4)cc23)c1F [Example 61, 1-(4-{[(1R)-1-{3-[1,1-difluoro-2-hydroxy(^2H2)ethyl]-2-fluorophenyl}ethyl]amino}-2-methylpyrido[3,4-d]pyrimidin-6-yl)-1lambda^5-phospholan-1-one] | 9.82 nM
Cc1nc(N[C@H](C)c2cccc(C(F)(F)CO)c2F)c2cc(P3(=O)CCCC3)ncc2n1 [Example 63, 1-[4-{{(1R)-1-[3-(1,1-difluoro-2-hydroxyethyl)-2-fluorophenyl]ethyl}amino)-2-methylpyrido[3,4-d]pyrimidin-6-yl]-1lambda^5-phospholan-1-one] | 10.1 nM
Cc1nc(N[C@H](C)c2cccc(C(F)(F)C(C)(C)O)c2F)c2cc(P(C)(=O)C(C)C)ncc2n1 (stereo partly drawn) [Example 70, 1,1-difluoro-1-{2-fluoro-3-[(1R)-1-({2-methyl-6-[methyl(propan-2-yl)phosphoryl]pyrido[3,4-d]pyrimidin-4-yl}amino)ethyl]phenyl}-2-methylpropan-2-ol] | 27.6 nM
Cc1nc(N[C@H](C)c2cccc(C(F)(F)C(C)(C)O)c2F)c2cc(P3(=O)CC=CC3)ncc2n1 [Example 85, 1-[4-({(1R)-1-[3-(1,1-difluoro-2-hydroxy-2-methylpropyl)-2-fluorophenyl]ethyl}amino)-2-methylpyrido[3,4-d]pyrimidin-6-yl]-2,5-dihydro-1H-1lambda^5-phosphol-1-one] | 12 nM
Cc1nc(N[C@H](C)c2cccc(C(F)(F)F)c2C)c2cc(P3(=O)CCN(C(=O)OC(C)(C)C)CC3)nc(C)c2n1 [Example 91, tert-butyl 4-[2,8-dimethyl-4-({(1R)-1-[2-methyl-3-(trifluoromethyl)phenyl]ethyl}amino)pyrido[3,4-d]pyrimidin-6-yl]-4-oxo-1,4lambda^5-azaphosphinane-1-carboxylate] | 286 nM
COCC(F)(F)c1cccc([C@@H](C)Nc2nc(C)nc3cnc(P4(=O)CCCC4)cc23)c1F [Example 93, 1-[4-{{(1R)-1-[3-(1,1-difluoro-2-methoxyethyl)-2-fluorophenyl]ethyl}amino)-2-methylpyrido[3,4-d]pyrimidin-6-yl]-1lambda^5-phospholan-1-one] | 37 nM
Cc1nc(N[C@H](C)c2cc(N)cc(C(F)(F)F)c2)c2cc(P3(=O)CCCC3)ncc2n1 [Example 95, 1-[4-{{(1R)-1-[3-amino-5-(trifluoromethyl)phenyl]ethyl}amino)-2-methylpyrido[3,4-d]pyrimidin-6-yl]-1lambda^5-phospholan-1-one] | 23.9 nM
Cc1nc(N[C@H](C)c2cc(N)cc(C(F)(F)F)c2)c2cc(P(C)(C)=O)ncc2n1 [Example 97, N-{(1R)-1-[3-amino-5-(trifluoromethyl)phenyl]ethyl}-6-(dimethylphosphoryl)-2-methylpyrido[3,4-d]pyrimidin-4-amine] | 13.6 nM
Cc1nc(N[C@H](C)c2cccc(C(F)(F)F)c2C)c2cc(P(=O)(C(C)C)C(C)C)ncc2n1 [Example 98, 6-[di(propan-2-yl)phosphoryl]-2-methyl-N-{(1R)-1-[2-methyl-3-(trifluoromethyl)phenyl]ethyl}pyrido[3,4-d]pyrimidin-4-amine] | 139 nM
Cc1nc(N[C@H](C)c2cccc(C(F)(F)F)c2C)c2cc(P3(=O)CCCC3)ncc2n1 [Example 99, 1-[2-methyl-4-{{(1R)-1-[2-methyl-3-(trifluoromethyl)phenyl]ethyl}amino)pyrido[3,4-d]pyrimidin-6-yl]-1lambda^5-phospholan-1-one] | 32.1 nM
Cc1nc(N[C@H](C)c2cccc(C(F)(F)F)c2C)c2cc(P3(=O)CCCC3)c(C)nc2n1 [Example 100, 1-[2,7-dimethyl-4-{{(1R)-1-[2-methyl-3-(trifluoromethyl)phenyl]ethyl}amino)pyrido[2,3-d]pyrimidin-6-yl]-1lambda^5-phospholan-1-one] | 4.89 nM

From patent US20240247015A1, “PHOSPHORUS DERIVATIVES AS NOVEL SOS1 INHIBITORS” (BAYER AKTIENGESELLSCHAFT, priority 2021, published 2024)
